Results: patent publication EP2559433A1, “Composition for lowering blood lipid and elevating high-density lipoprotein and method for manufacturing the same” (Sunway Biotech Co., Ltd., priority 2011, dated 2013)

Legend:
[1] = system: hamsters feed with high cholesterol diet; assay: Cholesterol parameters in blood of hamsters fed a high cholesterol diet; assay type: in vivo; parameters: TC reducing rate / TG reducing rate / LDL-C reducing rate / LDL/HDL reducing rate / MDA reducing rate: concentration or dose not given beside the values; conditions: for LDL/HDL: ratio of LDL-C to HDL-C; for LDL/HDL / HDL-C content / LDL-C content / MDA content / TC content / TG content: high cholesterol diet hamsters fed for 8 weeks; for HDL-C increasing rate / LDL-C reducing rate / LDL/HDL reducing rate / MDA reducing rate / TC reducing rate / TG reducing rate: relative to HC (high cholesterol diet group), 8 weeks; for HDL-C content: serum high density lipoprotein cholesterol; for LDL-C content: serum low density lipoprotein cholesterol; for MDA content: serum malondialdehyde; for TC content: serum total cholesterol, mean ± spread; for TG content: serum triglyceride
Description: Hereinafter, the composition of the first preferred embodiment is called as monascin (MS for abbreviation), and the amount of the monascin taken by an experimental animal is equivalent to 9.82 mg taken by an adult human per day; the composition of the second preferred embodiment is called as ankaflavin (AF for abbreviation), and the amount of the ankaflavin taken by an experimental animal is equivalent to 1.43 mg taken by an adult human per day; the composition of the third preferred embodiment is called as monascin + ankaflavin (MS+AF for abbreviation), and the amount of the monascin and ankaflavin taken by an experimental animal are equivalent to 9.82 mg and 1.43 mg taken by an adult human per day respectively. Additionally, a composition containing monacolin K is utilized as a comparison group, which is called as MK for abbreviation.
(§1) Firstly, the experiment utilizes hamsters feed with high cholesterol diet as experimental animals, which are then feed with MS, AF, MS+AF, and MK for 8 weeks, and then each of cholesterol parameters in blood of the hamsters are analyzed. The cholesterol parameters include total cholesterol (TC), triglyceride (TG), high density lipoprotein cholesterol (HDL-C), low density lipoprotein cholesterol (LDL-C), ratio of LDL-C to HDL-C, and malondialdehyde (MDA). The amount of the MK taken by the experimental animals is equivalent to 2.89 mg taken by an adult human per day. Additionally, a normal diet group is referred to as NOR, and a high cholesterol diet group is referred to as HC.
Referring to the following table 1 and table 2, wherein the table 1 illustrates the results of the above-mentioned animal experiments, and the table 2 illustrates the reducing rate or the increasing rate of MS, AF, MS+AF, and MK relative to HC. […] In the results of the reducing rate of LDL-C, although the group of MS has the effect almost the same as MK, the groups of AF and MS+AF have the effect of lowering the amount of LDL-C better than the MK group. […]

cholesterol biosynthesis = assay: Cell experiment on inhibition of cholesterol biosynthesis; assay type: cell-based; conditions: Fig. 12; cells treated at the same concentration (100 ppb)
Source text: In order to compare the inhibitory effect of cholesterol biosynthesis by monascin, ankaflavin and monacolin K, the present invention applies a cell experiment and treats cells with monascin, ankaflavin and monacolin K with the same concentration (100 ppb) for researching the influence of these ingredients on the cholesterol biosynthesis. Referring to Fig. 12, which is a comparative diagram for the effect of the inhibition of cholesterol by monascin, ankaflavin and monacolin K with the same concentration.

[2] = system: lipid plaque on arterial vascular walls in the thoracic cavity; assay: Lipid plaque staining in arteries; assay type: in vivo, hamsters; conditions: Fig. 11; high cholesterol diet for eight weeks; MK 2.89 mg, MS 9.82 mg, AF 1.43 mg adult human equivalent per day
Description: as §1
Another important indicator for evaluating atherosclerosis is the analysis of lipid plaque staining in arteries, and the results of lipid plaque staining can indicate that whether lipid plaque deposits on arterial vascular walls. Large amounts of lipid with over-oxidation can cause bulk deposition of foam cells, and then the vascular walls lose elasticity and large amounts of lipid plaque are deposited, so as to lead to atherosclerosis. Referring to Fig. 11, which is a diagram of quantitative results of the lipid plaque staining experiment.

SMILES	LDL/HDL [1]	HDL-C increasing rate [1] [%]	LDL-C reducing rate [1] [%]	LDL/HDL reducing rate [1] [%]	MDA reducing rate [1] [%]	TC reducing rate [1] [%]	TG reducing rate [1] [%]	HDL-C content [1] [mg/dL]	LDL-C content [1] [mg/dL]	MDA content [1] [mg/dL]	TC content [1] [mg/dL]	TG content [1] [mg/dL]	effect of inhibiting the biosynthesis of cholesterol (cholesterol biosynthesis)	amount of lipid plaque [2]
C/C=C/C1=CC2=C(CO1)C(=O)[C@]1(C)OC(=O)[C@H](C(=O)CCCCCCC)[C@H]1C2 [AF, ankaflavin]	0.355 ±0.049	17.3	42.3	37.6	59.6	28.6	58.2	118.6 ± 8.09	39.4 ± 5.80	9.07 ± 1.45	168.9 ± 11.5	94.5 ± 18.0	–	–
CC[C@H](C)C(=O)O[C@H]1C[C@@H](C)C=C2C=C[C@H](C)[C@H](CC[C@@H]3C[C@@H](O)CC(=O)O3)[C@H]21 [MK, monacolin K, reference compound]	0.489 ±0.050	-1.2	34.1	14.1	16.5	19.6	42.1	96.9 ± 8.84	45.0 ± 6.97	10.37 ± 1.73	190.3 ± 25.1	131.1 ± 36.7	has the weakest effect	can lower the amount of lipid plaque
C/C=C/C1=CC2=C(CO1)C(=O)[C@]1(C)OC(=O)[C@H](C(=O)CCCCC)[C@H]1C2 [MS, monascin]	0.416 ±0.022	14.1	33.9	26.9	40.1	29.9	63.4	114.2 ± 9.36	45.1 ± 3.36	8.62 ± 1.45	165.8 ± 10.6	82.8 ± 9.0	–	–
